The text below walks through data of paper PMC12257509, “New Generation Modified Azole Antifungals against Multidrug-Resistant” (Journal of Medicinal Chemistry, 2025).

The target in this test is T1, CYP51 (CaCYP51), lanosterol 14α-demethylase (Candida albicans, UniProt P10613).
T1 construct: gene ERG11; recombinant CaCYP51
As to the kind of experiment: CYP51 reconstitution assay with CPR and NADPH, GC-MS of demethylated sterols. The test is classed as biochemical.

The term IC50 denotes the concentration that gives 50% inhibition.

Like-named read-outs stand apart in the source and are kept apart here.

T1 sequence (P10613 whole entry): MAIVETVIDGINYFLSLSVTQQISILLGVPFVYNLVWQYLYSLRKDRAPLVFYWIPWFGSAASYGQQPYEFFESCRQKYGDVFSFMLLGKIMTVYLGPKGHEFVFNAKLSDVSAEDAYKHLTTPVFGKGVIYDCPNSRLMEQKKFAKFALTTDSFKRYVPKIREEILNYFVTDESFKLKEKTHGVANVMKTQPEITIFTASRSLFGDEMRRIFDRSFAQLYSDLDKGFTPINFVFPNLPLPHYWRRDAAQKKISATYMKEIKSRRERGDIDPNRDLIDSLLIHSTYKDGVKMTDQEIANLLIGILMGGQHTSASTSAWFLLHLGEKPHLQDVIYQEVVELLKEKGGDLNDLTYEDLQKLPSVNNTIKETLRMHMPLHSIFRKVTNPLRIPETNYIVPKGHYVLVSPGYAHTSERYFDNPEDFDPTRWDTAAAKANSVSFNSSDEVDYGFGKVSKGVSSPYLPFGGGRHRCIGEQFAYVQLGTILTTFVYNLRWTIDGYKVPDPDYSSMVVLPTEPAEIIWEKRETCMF

As for `OC(Cn1cncn1)(Cn1cncn1)c1ccc(F)cc1F` [fluconazole], the IC50 (read-out: IC50) is around 600 nM. Molecule `OC(CN1CCC(Nc2ncc(F)cn2)CC1)(Cn1cncn1)c1ccc(F)cc1F` (racemic) [compound 7, 2-(2,4-Difluorophenyl)-1-(4-((5-fluoropyrimidin-2-Yl)-amino)-piperidin-1-Yl)-3-(1h-1,2,4-triazol-1-Yl)-propan-2-Ol] registered an IC50 of around 400 nM.
